From PMC8566089 (Bioorganic Chemistry, 2021)
Read-outs that look alike come from different tables or passages of the source.

Assays:
COX-1 = target: T1, COX-1 (Ovis aries, UniProt P05979); test: COX-1 inhibitor screening kit; assay type: biochemical
T1 sequence (P05979 25-600): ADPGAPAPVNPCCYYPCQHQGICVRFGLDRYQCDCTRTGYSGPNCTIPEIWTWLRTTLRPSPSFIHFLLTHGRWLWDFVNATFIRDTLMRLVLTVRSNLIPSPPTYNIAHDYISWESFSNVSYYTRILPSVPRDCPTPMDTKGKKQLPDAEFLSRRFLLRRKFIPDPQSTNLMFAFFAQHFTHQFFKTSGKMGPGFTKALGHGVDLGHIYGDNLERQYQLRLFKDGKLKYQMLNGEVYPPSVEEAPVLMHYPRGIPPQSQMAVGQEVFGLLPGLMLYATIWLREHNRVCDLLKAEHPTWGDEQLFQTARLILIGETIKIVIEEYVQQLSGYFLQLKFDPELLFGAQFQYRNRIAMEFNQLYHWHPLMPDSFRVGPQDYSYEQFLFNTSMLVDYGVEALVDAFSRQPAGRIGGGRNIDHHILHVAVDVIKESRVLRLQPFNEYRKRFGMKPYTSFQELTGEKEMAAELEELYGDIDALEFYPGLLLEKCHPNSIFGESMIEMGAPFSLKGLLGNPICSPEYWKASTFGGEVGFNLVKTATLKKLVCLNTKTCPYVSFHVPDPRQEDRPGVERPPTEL

EGFR [1] = target: T2, EGFR (Homo sapiens, UniProt P00533); test: EGFR Western blot in MCF7; assay type: cell-based; conditions: for EGFR MCF7 % Inhibition: Western blot at MTT-IC50; for EGFR MCF7 RQ (relative quantification): Western blot at MTT-IC50, control RQ 4.226
T2 sequence (P00533 25-1210): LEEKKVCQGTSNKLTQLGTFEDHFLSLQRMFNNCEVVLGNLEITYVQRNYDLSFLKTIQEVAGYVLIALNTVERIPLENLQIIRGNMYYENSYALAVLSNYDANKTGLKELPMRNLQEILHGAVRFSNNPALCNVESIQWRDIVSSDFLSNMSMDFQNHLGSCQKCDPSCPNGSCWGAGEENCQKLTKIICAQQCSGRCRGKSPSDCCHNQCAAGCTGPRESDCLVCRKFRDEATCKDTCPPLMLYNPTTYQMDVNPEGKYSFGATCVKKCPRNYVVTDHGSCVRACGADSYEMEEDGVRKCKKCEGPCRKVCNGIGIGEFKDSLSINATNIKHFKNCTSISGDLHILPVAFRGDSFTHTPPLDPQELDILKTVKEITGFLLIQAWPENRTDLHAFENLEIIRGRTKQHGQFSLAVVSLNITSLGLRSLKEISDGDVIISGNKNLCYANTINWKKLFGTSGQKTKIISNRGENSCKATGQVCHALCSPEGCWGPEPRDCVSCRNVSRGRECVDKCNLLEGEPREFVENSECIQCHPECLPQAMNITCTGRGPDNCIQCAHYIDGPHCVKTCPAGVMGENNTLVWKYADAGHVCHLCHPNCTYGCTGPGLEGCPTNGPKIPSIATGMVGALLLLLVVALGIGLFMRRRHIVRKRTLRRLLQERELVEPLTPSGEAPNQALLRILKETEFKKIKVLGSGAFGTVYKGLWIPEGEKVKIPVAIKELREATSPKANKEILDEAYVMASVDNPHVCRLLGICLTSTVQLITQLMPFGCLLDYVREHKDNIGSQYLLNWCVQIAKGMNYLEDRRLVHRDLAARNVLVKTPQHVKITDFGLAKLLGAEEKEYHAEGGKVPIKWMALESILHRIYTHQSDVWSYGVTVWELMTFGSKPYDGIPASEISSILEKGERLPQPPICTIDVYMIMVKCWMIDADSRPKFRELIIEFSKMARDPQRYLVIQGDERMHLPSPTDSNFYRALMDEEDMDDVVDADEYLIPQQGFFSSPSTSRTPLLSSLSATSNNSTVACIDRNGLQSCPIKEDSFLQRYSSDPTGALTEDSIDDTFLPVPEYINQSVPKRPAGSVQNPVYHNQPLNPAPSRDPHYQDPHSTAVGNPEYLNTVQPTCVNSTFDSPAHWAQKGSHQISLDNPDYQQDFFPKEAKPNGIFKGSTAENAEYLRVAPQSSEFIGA

[2] = test system: HCT116 (colon) cancer cell line; test: MTT antiproliferative assay, HCT116; assay type: cell-based; conditions: for IC50: Homo sapiens, HCT-116, 72 h, read-out: IC50 ± SE, HCT116; for SI (selectivity index), HCT116: IC50 of RPE1 relative to that of HCT116
[3] = test system: HCT116 (colon cancer cell line); test: Annexin V-FITC apoptosis/necrosis study; assay type: cell-based; conditions: at MTT-IC50 of the agent
[4] = test system: RPE1 (normal human immortalized retinal pigment epithelial cell line); test: MTT assay against normal RPE1 cells; assay type: cell-based; conditions: RPE-1, read-out: IC50 ± SE, RPE1
[5] = test system: MCF7 (breast) cancer cell line; test: MTT antiproliferative assay, MCF7; assay type: cell-based; conditions: for IC50: Homo sapiens, MCF7, 72 h, read-out: IC50 ± SE, MCF7; for SI (selectivity index), MCF7: IC50 of RPE1 relative to that of MCF7
[6] = test system: A431 (squamous skin) cancer cell line; test: MTT antiproliferative assay, A431; assay type: cell-based; conditions: for IC50: Homo sapiens, A-431, 72 h, read-out: IC50 ± SE, A431; for SI (selectivity index), A431: IC50 of RPE1 relative to that of A431
[7] = test system: HCT116 (colon cancer cell line); test: PI-flow cytometry cell cycle analysis; assay type: cell-based; conditions: for phase of cell cycle arrest: PI-flow cytometry; for DNA content (%) G0-G1 / DNA content (%) G2/M / DNA content (%) Pre-G1 / DNA content (%) S: at MTT-IC50 of the agent
COX-2 = target: T3, COX-2 (Homo sapiens, UniProt P35354); test: COX-2 inhibitor screening kit; assay type: biochemical
T3 sequence (P35354 18-604): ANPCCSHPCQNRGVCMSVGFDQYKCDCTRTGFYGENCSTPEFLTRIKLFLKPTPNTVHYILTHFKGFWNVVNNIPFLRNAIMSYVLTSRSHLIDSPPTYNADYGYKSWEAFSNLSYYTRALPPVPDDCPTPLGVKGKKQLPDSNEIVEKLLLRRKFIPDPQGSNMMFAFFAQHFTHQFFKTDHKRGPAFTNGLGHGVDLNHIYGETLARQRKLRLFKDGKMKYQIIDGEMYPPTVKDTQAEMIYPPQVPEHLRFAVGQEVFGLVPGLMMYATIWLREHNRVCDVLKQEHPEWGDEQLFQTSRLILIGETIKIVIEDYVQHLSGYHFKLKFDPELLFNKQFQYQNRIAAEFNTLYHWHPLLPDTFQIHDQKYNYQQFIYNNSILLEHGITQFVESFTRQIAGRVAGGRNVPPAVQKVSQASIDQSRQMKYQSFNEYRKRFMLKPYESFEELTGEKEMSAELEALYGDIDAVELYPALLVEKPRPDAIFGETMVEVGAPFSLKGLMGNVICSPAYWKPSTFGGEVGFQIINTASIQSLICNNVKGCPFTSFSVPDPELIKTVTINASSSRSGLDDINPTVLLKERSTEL

VEGFR-2 [8] = target: T4, VEGFR-2 (Homo sapiens, UniProt P35968); test: VEGFR-2 Western blot in MCF7; assay type: cell-based; conditions: for VEGFR2 MCF7 % Inhibition: Western blot at MTT-IC50; for VEGFR2 MCF7 RQ (relative quantification): Western blot at MTT-IC50, control RQ 3.725
T4 sequence (P35968 20-1356): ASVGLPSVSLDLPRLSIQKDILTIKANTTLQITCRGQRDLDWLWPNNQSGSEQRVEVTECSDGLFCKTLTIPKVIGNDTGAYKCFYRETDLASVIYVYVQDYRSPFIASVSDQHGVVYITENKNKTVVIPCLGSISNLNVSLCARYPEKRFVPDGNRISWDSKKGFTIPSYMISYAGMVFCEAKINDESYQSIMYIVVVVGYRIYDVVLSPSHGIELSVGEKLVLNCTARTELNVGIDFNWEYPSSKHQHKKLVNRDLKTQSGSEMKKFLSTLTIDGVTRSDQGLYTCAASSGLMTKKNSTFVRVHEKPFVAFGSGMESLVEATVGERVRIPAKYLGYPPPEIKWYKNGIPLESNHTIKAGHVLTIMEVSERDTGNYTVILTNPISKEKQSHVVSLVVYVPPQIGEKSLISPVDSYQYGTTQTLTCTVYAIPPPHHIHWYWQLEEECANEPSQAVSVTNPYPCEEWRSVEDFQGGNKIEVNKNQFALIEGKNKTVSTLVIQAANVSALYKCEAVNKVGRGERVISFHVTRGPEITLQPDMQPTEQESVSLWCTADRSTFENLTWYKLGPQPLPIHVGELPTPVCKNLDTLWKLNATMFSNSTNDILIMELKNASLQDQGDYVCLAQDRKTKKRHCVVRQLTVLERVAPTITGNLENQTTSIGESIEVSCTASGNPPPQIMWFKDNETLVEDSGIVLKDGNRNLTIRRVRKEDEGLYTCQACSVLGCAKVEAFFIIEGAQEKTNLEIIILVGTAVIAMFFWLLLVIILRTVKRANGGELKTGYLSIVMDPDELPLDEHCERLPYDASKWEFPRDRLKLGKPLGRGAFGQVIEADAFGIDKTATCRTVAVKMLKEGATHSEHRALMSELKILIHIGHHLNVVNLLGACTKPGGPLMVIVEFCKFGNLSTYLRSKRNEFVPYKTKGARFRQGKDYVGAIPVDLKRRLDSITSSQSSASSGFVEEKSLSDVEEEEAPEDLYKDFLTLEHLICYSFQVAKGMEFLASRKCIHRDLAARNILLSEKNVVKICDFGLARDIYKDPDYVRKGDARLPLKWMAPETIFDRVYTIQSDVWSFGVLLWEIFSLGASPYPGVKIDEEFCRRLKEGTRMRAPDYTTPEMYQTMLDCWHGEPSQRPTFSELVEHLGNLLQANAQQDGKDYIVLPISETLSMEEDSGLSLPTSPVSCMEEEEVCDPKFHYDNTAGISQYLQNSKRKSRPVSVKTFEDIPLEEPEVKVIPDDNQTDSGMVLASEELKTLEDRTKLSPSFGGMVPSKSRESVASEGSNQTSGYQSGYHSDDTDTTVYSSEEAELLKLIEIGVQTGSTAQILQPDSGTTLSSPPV

[9] = test system: SARS-CoV-2 (hCoV-19/Egypt/NRC-03/2020); conditions: SARS-CoV-2 / VERO-E6
VEGFR-2 [10] = target: T4, VEGFR-2; test: VEGFR-2 Western blot in HCT116; assay type: cell-based; conditions: for VEGFR2 HCT116 % Inhibition: Western blot at MTT-IC50; for VEGFR2 HCT116 RQ (relative quantification): Western blot at MTT-IC50, control RQ 3.817
EGFR [11] = target: T2, EGFR; test: EGFR Western blot in HCT116; assay type: cell-based; conditions: for EGFR HCT116 % Inhibition: Western blot at MTT-IC50; for EGFR HCT116 RQ (relative quantification): Western blot at MTT-IC50, control RQ 4.0382
[12] = test system: HCT116 (colon) cancer cell line; conditions: read-out: IC50 ± SE, HCT116; cited from earlier work
[13] = test system: MCF7 (breast) cancer cell line; conditions: read-out: IC50 ± SE, MCF7; cited from earlier work

Compound | IC50 (COX-1) | EGFR MCF7 % Inhibition (EGFR [1]) | EGFR MCF7 RQ (relative quantification) (EGFR [1]) | IC50 [2] | SI (selectivity index), HCT116 [2] | Apoptosis (%) Early [3] | IC50 [4] | IC50 [5] | SI (selectivity index), MCF7 [5] | IC50 [6] | SI (selectivity index), A431 [6] | IC50 (COX-2) | SI = IC50(COX-1)/IC50(COX-2) (COX-2) | VEGFR2 MCF7 % Inhibition (VEGFR-2 [8]) | VEGFR2 MCF7 RQ (relative quantification) (VEGFR-2 [8]) | SI = CC50/IC50 [9] | VEGFR2 HCT116 % Inhibition (VEGFR-2 [10]) | VEGFR2 HCT116 RQ (relative quantification) (VEGFR-2 [10]) | EGFR HCT116 % Inhibition (EGFR [11]) | EGFR HCT116 RQ (relative quantification) (EGFR [11]) | further results
CC(=O)Oc1ccccc1C(=O)N1C/C(=C\c2ccc(Cl)cc2)C(=O)/C(=C/c2ccc(Cl)cc2)C1 [Compound 5c, 2-[3,5-Bis((E)-4-chlorobenzylidene)-4-oxopiperidine-1-carbonyl]phenyl acetate] | 271 nM | 85.6% | 0.61 | 986 ± 80 nM | 8.96 | 2.29% | 8830 ± 680 nM | 2810 ± 260 nM | 3.15 | 1210 ± 110 nM | 7.3 | 2240 nM | 0.121 | 59.5% | 1.51 | 1.7 | 73.3% | 1.02 | 62.9% | 1.5 | Apoptosis (%) Late [3]: 28.58%; Apoptosis (%) Total [3]: 44.28%; Necrosis (%) [3]: 13.41%; phase of cell cycle arrest [7]: G1-phase; DNA content (%) G0-G1 [7]: 55.28%; DNA content (%) G2/M [7]: 3.59%; DNA content (%) Pre-G1 [7]: 44.28%; DNA content (%) S [7]: 41.13%
COc1ccc(/C=C2\CN(C(=O)c3cc(Cl)ccc3OC(C)=O)C/C(=C\c3ccc(OC)cc3)C2=O)cc1 [Compound 5m, 2-[3,5-Bis((E)-4-methoxybenzylidene)-4-oxopiperidine-1-carbonyl]-4-chlorophenyl acetate] | 146 nM | 62.4% | 1.59 | 5940 ± 460 nM | 1.22 | – | 7230 ± 510 nM | 5060 ± 450 nM | 1.43 | 3810 ± 290 nM | 1.9 | 319 nM | 0.452–0.467 | 47.2% | 1.966 | 138.7 | 70.4% | 1.13 | 68.5% | 1.273 | SI = IC50(COX-1)/IC50(COX-2) (COX-2; listed as 5 m): 0.458
COc1ccc(/C=C2\CN(C(=O)c3cc(Cl)ccc3OC(C)=O)C/C(=C\c3ccc(OC)c(OC)c3)C2=O)cc1OC [Compound 5n, 2-[3,5-Bis((E)-3,4-dimethoxybenzylidene)-4-oxopiperidine-1-carbonyl]-4-chlorophenyl acetate] | 163 nM | 56.8% | 1.825 | 1490 ± 170 nM | 5.30 | – | 7870 ± 620 nM | 4390 ± 400 nM | 1.79 | 444 ± 40 nM | 17.7 | 361 nM | 0.452 | 37.2% | 2.338 | 88.9 | 37.4% | 2.389 | 60.1% | 1.610 | –
COc1cc(/C=C2\CN(C(=O)c3cc(Cl)ccc3OC(C)=O)C/C(=C\c3cc(OC)c(OC)c(OC)c3)C2=O)cc(OC)c1OC [Compound 5o, 4-Chloro-2-(4-oxo-3,5-bis((E)-3,4,5-trimethoxybenzylidene)piperidine-1-carbonyl)phenyl acetate] | 193 nM | 69.2% | 1.3 | 750 ± 60 nM | 9.36 | 1.72% | 7020 ± 450 nM | 2650 ± 220 nM | 2.65 | 431 ± 30 nM | 16.3 | 1600 nM | 0.121 | 63.0% | 1.38 | 34.0 | 69.6% | 1.16 | 68.2% | 1.283 | Apoptosis (%) Total [3]: 35.75%; Necrosis (%) [3]: 9.44%; phase of cell cycle arrest [7]: S-phase; DNA content (%) G0-G1 [7]: 42.75%; DNA content (%) G2/M [7]: 4.14%; DNA content (%) Pre-G1 [7]: 35.75%; DNA content (%) S [7]: 53.11%
CC(=O)Oc1ccc(Cl)cc1C(=O)N1C/C(=C\c2cccs2)C(=O)/C(=C/c2cccs2)C1 [Compound 5p, 4-Chloro-2-[(3E,5E)-4-oxo-3,5-bis(thiophen-2-ylmethylene)piperidine-1-carbonyl]phenyl acetate] | 285 nM | 59.0% | 1.731 | 6380 ± 440 nM | 3.12 | – | 19900 ± 1210 nM | 6250 ± 610 nM | 3.18 | 6250 ± 490 nM | 3.2 | 138 nM | 2.065 | 40.7% | 2.209 | 233.6 | 39.6% | 2.304 | 56.3% | 1.763 | –
COc1cc(/C=C/C(=O)CC(=O)/C=C/c2ccc(O)c(OC)c2)ccc1O [Cur, curcumin] | – | – | – | – | – | – | – | – | – | – | – | – | – | – | – | – | – | – | – | – | IC50 [12]: 38200 ± 2360 nM; IC50 [13]: 16000 ± 2040 nM
CCN(CC)CCNC(=O)c1c(C)[nH]c(/C=C2\C(=O)Nc3ccc(F)cc32)c1C [Sunitinib, reference compound] | – | – | – | – | – | 2.54% | – | – | – | – | – | – | – | – | – | – | – | – | – | – | Apoptosis (%) Late [3]: 21.69%; Apoptosis (%) Total [3]: 31.69%; Necrosis (%) [3]: 7.46%; phase of cell cycle arrest [7]: S-phase; DNA content (%) G0-G1 [7]: 46.18%; DNA content (%) G2/M [7]: 7.59%; DNA content (%) Pre-G1 [7]: 31.69%; DNA content (%) S [7]: 46.23%
